Several values for one entry are separate records, joined by “and”; a condition that tells them apart may be missing. Equal values may be shown once.
system: Phosphorylation of STAT6 in human A549 cells; experiment: Phosphorylated STAT6 (pSTAT6) flow cytometry assay in human A549 cells; type: cell-based; conditions: read-out: STAT6 IL4 pSTAT6 assay in A549 cells: Average IC50
Excerpt: Example 3. Phosphorylated STAT6 (pSTAT6) Flow Cytometry Assay in Human A549 Cells
Phosphorylation of STAT6 in human A549 cells was quantitatively measured using flow cytometry technology.

IC50	Compound
< 100 nM	COc1cccnc1N1CCN(C(=O)c2cc3c(-c4cnccc4OC4CC4)cc(C4=CCCN(C(=O)CCn5ccnn5)C4)c(F)c3[nH]2)CC1 [Example I-556]
10000 to 100000 nM	COc1ccccc1-c1cc(C2=CCCN(C(=O)[C@@H]3Cc4ccccc4CN3C=O)C2)cc2cc(C(=O)N(C)C)oc12 (single isomer, unassigned) [Example I-805]
< 100 nM	CNc1cnc(N2CCN(C(=O)c3cc4c(-c5ccccc5OC)cc(C5=CCCN(C(=O)CCn6ccnn6)C5)c(F)c4[nH]3)CC2)c(OC)c1 [Example I-353]
< 100 nM	COc1ccccc1-c1cc(C2=CCCN(C(=O)CCn3ccnn3)C2)c(F)c2[nH]c(C(=O)N3CCC(=O)C3)cc12 [Example I-1031]
< 100 nM	COc1cc(F)cnc1N1CCN(C(=O)c2cc3c(-c4ccnc(N5CCN(C)CC5)c4)cc(C4=CCCN(C(=O)CCn5ccnn5)C4)c(F)c3[nH]2)CC1 [Example I-617]
< 100 nM	CCc1cnccc1-c1cc(C2=CCCN(C(=O)CCn3cccn3)C2)c(F)c2[nH]c(C(=O)N3CCN(c4ncc(F)cc4OC)CC3)cc12 [Example I-688]
< 100 nM	CCc1ccncc1-c1cc(C2=CCCN(C(=O)CCn3ccnn3)C2)c(F)c2[nH]c(C(=O)N3CCN(C4CC4)CC3)cc12 [Example I-473]
< 100 nM	COc1cc(N(C)C)ccc1-c1cc(C2=CCCN(C(=O)CCn3ccnn3)C2)c(F)c2[nH]c(C(=O)N3CCN(c4ncc(Cl)cc4OC)CC3)cc12 [Example I-1039]
< 100 nM	COc1ccccc1-c1cc(C2=CCCN(C(=O)CCn3ccnn3)C2)c(F)c2[nH]c(C(=O)N3CCN(c4cccc(=O)n4C)CC3)cc12 [Example I-1020]
< 100 nM	COc1cc(F)cnc1N1CCN(C(=O)c2cc3c(-c4ccccc4CN4CCOCC4)cc(C4=CCCN(C(=O)CCn5ccnn5)C4)c(F)c3[nH]2)CC1 [Example I-1123]
< 100 nM	COc1ccccc1-c1cc(C2=CCCN(C(=O)CCn3ccnn3)C2)c(F)c2[nH]c(C(=O)N3CCC(=O)N(C)CC3)cc12 [Example I-994]
> 100000 nM	CCc1ccc(-c2cc(C(=O)N3CCN(c4ncc(F)cc4OC)CC3)cc3cc(C4=CCCN(C(=O)C5CC5C(=O)O)C4)n(CC4CC4)c23)c(C)n1 (stereo not shown) [Example I-550]
< 100 nM	CC(=O)N1CCC=C(c2cc(-c3cncc4ccccc34)c3cc(C(=O)N(C)C)[nH]c3c2F)C1 [Example I-1098]
< 100 nM	COc1cc(F)cnc1N1CCN(C(=O)c2cc3c(-c4cnn(C)c4-c4ccccc4)cc(C4=CCCN(C(=O)CCn5ccnn5)C4)c(F)c3[nH]2)CC1 [Example I-621]
< 100 nM	COC(=O)c1ccc(OC)c(N2CCN(C(=O)c3cc4c(-c5ccccc5OC)cc(C5=CCCN(C(=O)CCn6ccnn6)C5)c(F)c4[nH]3)CC2)n1 [Example I-360]
< 100 nM	(1R)-3-[4-(4-ethyl-3-pyridyl)-7-fluoro-2-[4-(5-fluoro-3-methoxy-2-pyridyl)piperazine-1-carbonyl]-1H-indol-6-yl]cyclohex-3-ene-1-carboxylic acid [Example I-810]
< 100 nM	CCOc1ccncc1-c1cc(C2=CCCN(C(=O)CCn3ccnn3)C2)c(F)c2[nH]c(C(=O)N3CCN(c4ccnnc4OC)CC3)cc12 [Example I-483]
100 to 1000 nM	COc1ccccc1-c1cc(C2=CCCN(C(=O)CCn3ccnn3)C2)c(F)c2[nH]c(C(=O)N3CCN(c4c(C)cccc4OC)CC3)cc12 [Example I-913]
< 100 nM	COc1cccc(N2CCN(C(=O)c3cc4c(-c5cnccc5OC)cc(C5=CCCN(C(=O)CCn6ccnn6)C5)c(F)c4[nH]3)CC2)n1 [Example I-440]
1000 to 10000 nM	COc1ccccc1-c1cc(C2=CCCN(C(=O)CCn3ccnn3)C2)c(F)c2[nH]c(C(=O)N3CCN(c4ccc5ccccc5c4OC)CC3)cc12 [Example I-956]
< 100 nM	COc1ncccc1-c1cc(C(=O)N2Cc3cnn(C)c3C2)cc2cc(C3=CCCN(C(=O)CC(=O)O)C3)n(CC3CC3)c12 [Example I-791]
100 to 1000 nM	CCc1ccc(-c2cc(C(=O)N3Cc4cnn(CC)c4C3)cc3cc(C4=CCCN(C(C)=O)C4)n(CC4CC4)c23)c(C)n1 [Example I-1046]
> 100000 nM	COc1cnccc1-c1cc(C2=CCCN(C(=O)CCn3ccnn3)C2)c(F)c2[nH]c(C(=O)N3CCN(c4ccccc4OC)CC3)cc12 [Example I-407]
< 100 nM	CCOc1ccc(-c2cc(C3=CCCN(C(=O)CCn4ccnn4)C3)c(F)c3[nH]c(C(=O)N4CCN(c5ncc(F)cc5OC)CC4)cc23)c(OCC)c1 [Example I-618]
10000 to 100000 nM	COc1ccncc1-c1cc(C2=CCCN(C(=O)CCc3nccs3)C2)c(F)c2[nH]c(C(=O)N3CCN(c4ncccc4OC)CC3)cc12 [Example I-497]
100 to 1000 nM	CCCCOc1ccc(-c2cc(C3=CCCN(C(=O)CCn4ccnn4)C3)c(F)c3[nH]c(C(=O)N4CCN(c5ncc(F)cc5OC)CC4)cc23)cc1 [Example I-1127]
100 to 1000 nM	C[C@@H](C(=O)N1CCC=C(c2ccc3cc(C(=O)N(C)C)[nH]c3c2)C1)n1ccccc1=O [Example I-834]
< 100 nM	COc1ncccc1-c1cc(C2=CCCN(C(=O)CCn3ccnn3)C2)c(F)c2[nH]c(C(=O)N3CCN(C4CC4)CC3)cc12 [Example I-602]
< 100 nM	COc1cccc(N2CCN(C(=O)c3cc4c(-c5cc(F)c(F)cc5OC)cc(C5=CCCN(C(=O)CCn6ccnn6)C5)c(F)c4[nH]3)CC2)n1 [Example I-590]
< 100 nM	COc1ccccc1-c1cc(C2=CCCN(C(=O)CCn3ccnn3)C2)c(F)c2[nH]c(C(=O)N3CCO[C@H](C)C3)cc12 [Example I-1007]

The next lines start with the compound.

Compound	IC50
COc1ccccc1-c1cc(C2=CCCN(C(=O)CCn3ccnn3)C2)c(F)c2[nH]c(C(=O)N3Cc4cn(-c5ncccc5OC)cc4C3)cc12 [Example I-417]	< 100 nM
COc1ccccc1-c1cc(C2=CCCN(C(=O)CCn3ccnn3)C2)c(F)c2[nH]c(C(=O)N3CCN(c4nc5ccccc5nc4C)CC3)cc12 [Example I-339]	< 100 nM
COc1ccccc1-c1cc(C2=CCCN(C(=O)CCn3ccnn3)C2)c(F)c2[nH]c(C(=O)N3CCN(c4cc(F)cc(F)c4OC)CC3)cc12 [Example I-357]	< 100 nM
COc1ccccc1-c1cc(C2=CCCN(C(=O)CCn3ccnn3)C2)c(F)c2[nH]c(C(=O)Nc3ccnn3C)cc12 [Example I-993]	100 to 1000 nM
CN(C)C(=O)c1cc2cc(C3=CCCN(C(=O)CCn4ccnn4)C3)cc(-c3ccc4cnn(C)c4c3)c2o1 [Example I-1072]	< 100 nM
COc1c(F)cccc1-c1cc(C2=CCCN(C(C)=O)C2)c(F)c2[nH]c(C(=O)N(C)C)cc12 [Example I-881]	100 to 1000 nM
COc1ccccc1-c1cc(C2=CCCN(C(=O)CCn3ccnn3)C2)c(F)c2[nH]c(C(=O)N3CCc4ncncc4C3)cc12 [Example I-1010]	< 100 nM
COc1c(F)cc(F)cc1-c1cc(C2=CCCN(C(=O)CCn3ccnn3)C2)c(F)c2[nH]c(C(=O)N3CCN(c4ncccc4OC4CC4)CC3)cc12 [Example I-597]	< 100 nM
5-(1-(2-formyl-1,2,3,4-tetrahydroisoquinoline-3-carbonyl)-1,2,5,6-tetrahydropyridin-3-yl)-7-(2-methoxyphenyl)-N,N-dimethylbenzofuran-2-carboxamide [Example I-803]	> 100000 nM
COc1cc(F)ccc1-c1cc(C2=CCCN(C(=O)CCn3ccnn3)C2)c(F)c2[nH]c(C(=O)N3CCN(C4CC4)CC3)cc12 [Example I-588]	< 100 nM
CCn1ncc2c1CN(C(=O)c1cc3c(-c4ccc(C5CC5)nc4C)cc(C4=CCCN(C(=O)CCn5ccnn5)C4)c(F)c3[nH]1)C2 [Example I-762]	> 100000 nM
CN(C)C(=O)c1cc2cc(C3=CCCN(C(=O)CCn4ccnn4)C3)cc(-c3cc(F)ccc3C(F)(F)F)c2o1 [Example I-1081]	< 100 nM
CCc1nc(C)ccc1-c1cc(C(=O)N2CCN(c3nc(C)c(F)cc3OC)CC2)cc2cc(C3=CCCN(C(=O)CC(=O)O)C3)n(CC3CC3)c12 [Example I-792]	< 100 nM
CCc1cc(C)ncc1-c1cc(C2=CCCN(C(=O)CCn3ccnn3)C2)c(F)c2[nH]c(C(=O)N3Cc4cnn(C)c4C3)cc12 [Example I-531]	< 100 nM
COc1ccccc1-c1cc(C2=CCCN(C(=O)CCn3ccnn3)C2)c(F)c2[nH]c(C(=O)N3CCN(c4cncc5cccnc45)CC3)cc12 [Example I-954]	< 100 nM
COc1cc(F)cnc1N1CCN(C(=O)c2cc3c(Br)cc(C4=CCCN(C(=O)CCn5ccnn5)C4)c(F)c3[nH]2)CC1 [Example I-806, 1-(5-(4-bromo-7-fluoro-2-(4-(5-fluoro-3-methoxypyridin-2-yl)piperazine-1-carbonyl)-1H-indol-6-yl)-3,6-dihydropyridin-1(2H)-yl)-3-(1H-1,2,3-triazol-1-yl)propan-1-one]	10000 to 100000 nM and 100 to 1000 nM
COc1ccccc1-c1cc(C2=CCCN(C(=O)CCn3ccnn3)C2)c(F)c2[nH]c(C(=O)N3CCOCC3)cc12 [Example I-985]	< 100 nM
CN(C)C(=O)c1cc2cc(C3=CCCN(C(=O)CCn4ccnn4)C3)cc(NCc3ccccc3C3CC3)c2o1 [Example I-878]	< 100 nM
COc1ccccc1-c1cc(C2=CCCN(C(=O)CCn3ccnn3)C2)c(F)c2[nH]c(C(=O)N3CCN(c4ncccc4C(C)C)CC3)cc12 [Example I-333]	< 100 nM
Cc1cc(CNc2cc(C3=CCCN(C(=O)CCn4ccnn4)C3)cc3cc(C(=O)N(C)C)oc23)n(C)n1 [Example I-894]	100 to 1000 nM
CN(C)C(=O)c1cc2cc(C3=CCCN(C(=O)CCn4ccnn4)C3)cc(-c3ccc4c(c3)NC(=O)C4)c2o1 [Example I-869]	< 100 nM
COc1cccnc1N1CCN(C(=O)c2cc3c(-c4cccc(F)c4F)cc(C4=CCCN(C(=O)CCn5ccnn5)C4)c(F)c3[nH]2)CC1 [Example I-371]	< 100 nM
CC(=O)N1CCC=C(c2cc(-c3ccccc3C)c3cc(C(=O)N(C)C)[nH]c3c2F)C1 [Example I-890]	100 to 1000 nM
CNc1ccc(-c2cc([C@@H]3CCCN(C(=O)CCn4ccnn4)C3)cc3[nH]c(C(=O)N(C)C)cc23)c(OC)c1 (single isomer, unassigned) [Example I-1191]	1000 to 10000 nM
CN(C)C(=O)c1cc2ccc(C3=CCCN(C(=O)CCc4nccs4)C3)cc2[nH]1 [Example I-821]	100 to 1000 nM

From patent publication US20250214977A1, “STAT6 INHIBITORS AND USES THEREOF” (Kymera Therapeutics, Inc., priority 2024, published 2025)
